Measured values: patent US9879243B2, “Culture medium for cell growth and transfection” (LIFE TECHNOLOGIES CORPORATION, priority 2001, dated 2018)

Tests used:
[1] = test system: 293 cells; assay: Effect of replacement compounds on the growth of 293 cells in 293 SFM without transferrin, three passages; type: cell-based, human; details: third passage
[2] = test system: CHO cells; assay: Effect of replacement compounds on the growth of CHO cells in CD CHO medium without transferrin, three passages; type: cell-based, Chinese hamster; details: third passage
Procedure, shortened: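 CHO cells seeded at 1×10^5 viable cells/mL in transferrin-free CD CHO medium, 37 °C, 8% CO2, subcultured every 4 days for three passages. Compounds tested alone or complexed with ferric chloride or ferrous sulfate at 25, 50 and 100 μM; growth as mean percentage of the 5 μg/mL holo-transferrin control at the third passage, duplicate cultures.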

[3] = test system: Sp2/0 cells; assay: Effect of replacement compounds on the growth of Sp2/0 cells in CD Hybridoma medium without transferrin, three passages; type: cell-based; details: third passage
[4] = test system: 293 cells; assay: β-galactosidase expression after transfection (pCMV-SPORT-β-gal, LIPOFECTAMINE 2000) of 293 cells in monolayer culture, 24-well plates; type: cell-based, human; details: Table 8, replacement compounds 25 μM in test media, 24 hrs post-transfection
Procedure: When cultured in suspension, cells were split to 3×10^5 viable cells per ml at each passage. On the week of transfection cells were seeded at 3×10^5 viable cells per ml. After ˜48 hrs of growth (day 2) cells were vortexed for 30 seconds and counted and appropriate volumes used for transfection as described in procedures below.
In addition, the base media comprises 2.4 g/L NaHCO3, 2.98 g/L Hepes, 4 mM L-glutamine and 3 ml/L PLURONIC F-68 (Invitrogen Corp., Carlsbad, Calif.).
The osmolarity is adjusted to from about 275-310 mOsm, preferably about 280 mOsm and the pH is adjusted to from about 7.0 to about 7.45 preferably about 7.4 respectively.
Three wells were set up for each treatment. A volume of media corresponding to 3×10^6 viable cells was centrifuged. The supernatant was removed and the cells re-suspended in 600 μl test media. Each well of a 24 well plate received 200 μl of the re-suspended cells.
To prepare the nucleic acid for the transfection experiments, 93 μl test media+3 μl DNA+24 μl LIPOFECTAMINE 2000 were combined in a microfuge tube and complexed for 30 minutes. A 40 μl aliquot of complex was added to each well. 250 μl test media was added to each well five hours after addition of complex. The final cell concentration was 1×10^6 viable cells per well; the final DNA concentration was 1 μg per 1×10^6 viable cells and the final LIPOFECTAMINE 2000 concentration was 8 μl per 1×10^6 viable cells.
24 hrs post-transfection, samples were collected for β-galactosidase quantitation. The contents of duplicate wells were pooled (i.e. ˜2×10^6 cells for the assay) for each sample and transferred to a microfuge tube. The cells were centrifuged, the supernatant was removed and the cells were re-suspended in 1 ml of D-PBS. The cells were pelleted a second time and re-suspended in 1 ml of D-PBS. The samples were then stored at −70° C. Prior to the assay for β-galactosidase, samples were freeze-thawed a total of five times.
293 cells were grown in monolayer culture in the presence of the various replacement compounds indicated and transfection experiments performed as described above. The results are shown in Table 8 and the values are β-galactosidase activity expressed as nanograms of β-galactosidase per 2×10^6 cells. A comparison was made between the transfection efficiency of DNA complexes formed in D-MEM medium and DNA complexes formed in test medium. […]
For cells transfected in 24-well plates, cells densities used were 1×10^6 viable cells per well.

[5] = 25 μM, control 5 μg/mL human holo-transferrin, iron equimolar where combined
[6] = 50 μM, control 5 μg/mL human holo-transferrin
[7] = 100 μM, control 5 μg/mL human holo-transferrin
[8] = 25 μM, control 5 μg/mL human holo-transferrin

Molecule	mean percentage of control growth [1, 5]	mean percentage of control growth [1, 6]	mean percentage of control growth [1, 7]	mean percentage of control growth [2, 8]	mean percentage of control growth ([2]; 50 μM)	mean percentage of control growth ([2]; 100 μM)	mean percentage of control growth [3, 8]	mean percentage of control growth ([3]; 50 μM)	mean percentage of control growth ([3]; 100 μM)	β-galactosidase activity; D-MEM used for complexing, Test media to re-suspend cells [4]	β-galactosidase activity; Test Media used for complexing and to re-suspend cells [4]	mean percentage of control growth ([1]; 5 μM)	mean percentage of control growth ([1]; 10 μM)	mean percentage of control growth ([1]; 20 μM)	mean percentage of control growth ([2]; 5 μM)	mean percentage of control growth ([2]; 10 μM)	mean percentage of control growth ([2]; 20 μM)	mean percentage of control growth ([3]; 5 μM)	mean percentage of control growth ([3]; 10 μM)	mean percentage of control growth ([3]; 20 μM)
Ferrous Gluconate•Ascorbic Acid Phosphate	86 percentage of control growth	109 percentage of control growth	101 percentage of control growth	91 percentage of control growth	61 percentage of control growth	28 percentage of control growth	92 percentage of control growth	94 percentage of control growth	93 percentage of control growth	116 nanograms of β-galactosidase per 2×10^6 cells	275 nanograms of β-galactosidase per 2×10^6 cells	–	–	–	–	–	–	–	–	–
Deferoxamine Mesylate•Ferric Chloride	–	–	–	–	–	–	–	–	–	154 nanograms of β-galactosidase per 2×10^6 cells	301 nanograms of β-galactosidase per 2×10^6 cells	101 percentage of control growth	120 percentage of control growth	127 percentage of control growth	50 percentage of control growth	74 percentage of control growth	52 percentage of control growth	0 percentage of control growth	0 percentage of control growth	0 percentage of control growth
[Cl][Fe]([Cl])[Cl] [Ferric Chloride, reference compound]	87 percentage of control growth	91 percentage of control growth	109 percentage of control growth	56 percentage of control growth	85 percentage of control growth	101 percentage of control growth	55 percentage of control growth	73 percentage of control growth	74 percentage of control growth	18 nanograms of β-galactosidase per 2×10^6 cells	0 nanograms of β-galactosidase per 2×10^6 cells	–	–	–	–	–	–	–	–	–
